Measurements published in the supplement of paper PMC11451515.

System: SEM cells
Assay: cell viability relative to DMSO control; higher = less cytotoxic
Conditions: 48 h
Outline: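 Viability values are per-plate percentages of DMSO wells, with background from cell-free wells. Library compounds in DMSO were pin-dosed, in an 11-point threefold series from 47 μM to 0.79 nM, onto NOMO1 or SEM (500 cells/well) or P12-Ichikawa (1000 cells/well) leukemia cells in 1536-well plates (5 μl). Those cells had been adapted for at least four passages in each medium, and CellTiter-Glo One luminescence was read after 48 h at 37°C.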

[1] = HPLM + 10% dialyzed FBS, 0.000781 µM
[2] = HPLM + 10% dialyzed FBS, 0.00234 µM
[3] = HPLM + 10% dialyzed FBS, 0.00702 µM
[4] = HPLM + 10% dialyzed FBS, 0.0211 µM
[5] = HPLM + 10% dialyzed FBS, 0.0632 µM
[6] = HPLM + 10% dialyzed FBS, 0.19 µM
[7] = HPLM + 10% dialyzed FBS, 0.569 µM
[8] = HPLM + 10% dialyzed FBS, 1.71 µM
[9] = HPLM + 10% dialyzed FBS, 5.12 µM
[10] = HPLM + 10% dialyzed FBS, 15.4 µM
[11] = HPLM + 10% dialyzed FBS, 46.1 µM
[12] = RPMI 5 mM glucose + 10% FBS, 0.000781 µM
[13] = RPMI 5 mM glucose + 10% FBS, 0.00234 µM
[14] = RPMI 5 mM glucose + 10% FBS, 0.00702 µM
[15] = RPMI 5 mM glucose + 10% FBS, 0.0211 µM
[16] = RPMI 5 mM glucose + 10% FBS, 0.0632 µM
[17] = RPMI 5 mM glucose + 10% FBS, 0.19 µM
[18] = RPMI 5 mM glucose + 10% FBS, 0.569 µM
[19] = RPMI 5 mM glucose + 10% FBS, 1.71 µM
[20] = RPMI 5 mM glucose + 10% FBS, 5.12 µM
[21] = RPMI 5 mM glucose + 10% FBS, 15.4 µM
[22] = RPMI 5 mM glucose + 10% FBS, 46.1 µM
[23] = RPMI 5 mM glucose + 10% dialyzed FBS, 0.000781 µM
[24] = RPMI 5 mM glucose + 10% dialyzed FBS, 0.00234 µM
[25] = RPMI 5 mM glucose + 10% dialyzed FBS, 0.00702 µM
[26] = RPMI 5 mM glucose + 10% dialyzed FBS, 0.0211 µM
[27] = RPMI 5 mM glucose + 10% dialyzed FBS, 0.0632 µM
[28] = RPMI 5 mM glucose + 10% dialyzed FBS, 0.19 µM
[29] = RPMI 5 mM glucose + 10% dialyzed FBS, 0.569 µM
[30] = RPMI 5 mM glucose + 10% dialyzed FBS, 1.71 µM
[31] = RPMI 5 mM glucose + 10% dialyzed FBS, 5.12 µM
[32] = RPMI 5 mM glucose + 10% dialyzed FBS, 15.4 µM
[33] = RPMI 5 mM glucose + 10% dialyzed FBS, 46.1 µM

Structure (SMILES)	cell viability [1] [%]	cell viability [2] [%]	cell viability [3] [%]	cell viability [4] [%]	cell viability [5] [%]	cell viability [6] [%]	cell viability [7] [%]	cell viability [8] [%]	cell viability [9] [%]	cell viability [10] [%]	cell viability [11] [%]	cell viability [12] [%]	cell viability [13] [%]	cell viability [14] [%]	cell viability [15] [%]	cell viability [16] [%]	cell viability [17] [%]	cell viability [18] [%]	cell viability [19] [%]	cell viability [20] [%]	cell viability [21] [%]	cell viability [22] [%]	cell viability [23] [%]	cell viability [24] [%]	cell viability [25] [%]	cell viability [26] [%]	cell viability [27] [%]	cell viability [28] [%]	cell viability [29] [%]	cell viability [30] [%]	cell viability [31] [%]	cell viability [32] [%]	cell viability [33] [%]
NCCCCCC(=O)O	87.3	17	101	42.8	108	119	111	119	116	107	115	91.7	115	104	36.5	103	102	111	104	96.4	98	97.4	35.6	9.07	101	39.5	100	99.9	101	100	94.3	98	103
CN(c1nccc(=O)[nH]1)C1CCN(c2nc3ccccc3n2Cc2ccc(F)cc2)CC1	105	107	115	113	112	113	108	110	115	91	123	78.4	94.8	95	80	84.8	88.9	95.3	98.1	91.9	79.7	87.7	94.7	103	102	111	106	113	109	106	101	104	99.6
NC(=O)c1ccc(-c2nc(-c3ccc4c(c3)OCO4)c(-c3ccccn3)[nH]2)cc1	123	116	128	25.6	130	121	124	125	128	129	122	93.4	85.5	98.2	9.45	89.5	86.8	92.1	93.7	102	86.3	66.9	108	123	110	18.9	120	111	128	131	123	134	102
C/C(=C\c1csc(C)n1)[C@@H]1C[C@@H]2O[C@]2(C)CCC[C@H](C)[C@H](O)[C@@H](C)C(=O)C(C)(C)[C@@H](O)CC(=O)O1	20.1	19.1	23	36.1	21	22	19.7	19.5	18.2	20.3	19.9	11.4	15.3	17.3	19.1	16.8	17.3	15.8	14.1	13.1	14.9	16.9	20.7	18.4	14	50.3	20.6	16.9	14.3	16.2	16.6	16.3	15.6
CCCCCCCCOc1ccccc1C(=O)Nc1ccc(C(=O)OCC[N+](C)(CC)CC)cc1	105	115	101	105	102	112	108	96.6	73.9	91.2	57.2	98.2	93	84.5	102	96.9	102	97	85.6	49.5	93.5	33.4	97	109	90.4	99.9	107	121	104	95.3	75.5	118	30.7
CCc1c(O)cc(O)c(C(=O)c2ccc(OCCN3CCOCC3)c(OC)c2)c1CC(=O)N(CCOC)CCOC	115	124	118	120	116	116	111	103	47.3	25.5	17	122	116	153	121	143	117	81.9	91.3	40.8	20.8	19	115	103	111	106	108	105	86.5	68.1	32.9	24.1	15
CCCNCC(O)COc1ccccc1C(=O)CCc1ccccc1 (centres undefined)	86.5	86.5	117	93.3	98.7	54.2	105	112	117	108	99.6	98.8	95.1	98.1	104	107	60.4	125	109	124	116	97.2	101	85.1	109	90.5	102	43.6	118	104	116	115	110
CC(C[N+](C)(C)C)OC(N)=O (centres undefined)	107	114	83.5	98.8	96.1	106	104	116	106	110	97.6	105	105	87	128	117	132	120	124	113	120	109	116	123	88.7	114	120	107	125	108	112	116	108
